Laboratory results as given in the supplement of paper PMC10307832.

How the values were obtained:
Test in all cases: relative viability (nuclei count vs DMSO), 5 days (fraction); higher = more cells survive
[1] = compound: CC1=NN=C(O1)C2=NN=C(C=C2)N3CCC(CC3)OC4=C(C=CC(=C4)F)Cl + O=C(CCCCCCC(=O)Nc1ccccc1)NO [Vorinostat] (partner 1 µM)
Summary of the method: (§1)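 Lung cancer cell lines in 1536-well plates were dosed by pin tool the day after seeding, either with one drug alone or with a fixed anchor-drug dose plus five library-drug doses (not always all listed) in √10 steps. After 5 days, cells were fixed and their nuclei stained in one step (final 0.05% Triton X-100, 1% formaldehyde, 1 ug/ml Hoechst), then counted on 4× images. Relative viability is the nuclei count in treated wells divided by that in vehicle wells. Values are medians of duplicate plates.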

[2] = compound: CC(C)C[C@@H](C(=O)N[C@H](C(=O)OC1CCCC1)c1ccccc1)[C@H](O)C(=O)NO [Tosedostat] + O=C(c1cc(Cc2n[nH]c(=O)c3ccccc23)ccc1F)N1CCN(C(=O)C2CC2)CC1 [Olaparib] (partner 8 µM)
Summary of the method: as §1

[3] = compound: CC(C)C[C@@H](C(=O)N[C@H](C(=O)OC1CCCC1)c1ccccc1)[C@H](O)C(=O)NO [Tosedostat] + Nc1nc2[nH]cc(CCc3ccc(C(=O)N[C@@H](CCC(=O)O)C(=O)O)cc3)c2c(=O)[nH]1 [Pemetrexed] (partner 0.2 µM)
Summary of the method: as §1

[4] = compound: CC1=NN=C(O1)C2=NN=C(C=C2)N3CCC(CC3)OC4=C(C=CC(=C4)F)Cl + CS(=O)(=O)N1CCN(Cc2cc3nc(-c4cccc5[nH]ncc45)nc(N4CCOCC4)c3s2)CC1 [Pictilisib] (partner 1 µM)
Summary of the method: as §1

Cell Line	relative viability ([1]; first compound 0.253 µM)	relative viability ([1]; first compound 0.8 µM)	relative viability ([1]; first compound 2.53 µM)	relative viability ([1]; first compound 8 µM)	relative viability ([2]; first compound 0.02 µM)	relative viability ([2]; first compound 0.06325 µM)	relative viability ([2]; first compound 0.2 µM)	relative viability ([2]; first compound 0.6325 µM)	relative viability ([2]; first compound 2 µM)	relative viability ([3]; first compound 0.02 µM)	relative viability ([3]; first compound 0.06325 µM)	relative viability ([3]; first compound 0.2 µM)	relative viability ([3]; first compound 0.6325 µM)	relative viability ([3]; first compound 2 µM)	relative viability ([4]; first compound 0.253 µM)	relative viability ([4]; first compound 0.8 µM)	relative viability ([4]; first compound 2.53 µM)	relative viability ([4]; first compound 8 µM)
NCI-H1734	0.721	0.692	0.721	0.737	0.651	0.505	0.577	0.431	0.536	0.455	0.446	0.428	0.517	0.435	0.451	0.404	0.421	0.355
NCI-H1755	0.538	0.553	0.611	0.538	0.924	0.851	0.827	0.857	0.776	0.521	0.43	0.362	0.484	0.416	0.382	0.383	0.398	0.387
NCI-H1793	0.683	0.567	0.79	0.666	0.884	0.879	0.763	0.698	0.669	0.659	0.832	0.838	0.849	0.598	0.307	0.312	0.31	0.347
NCI-H1915	0.457	0.219	0.401	0.325	0.281	0.234	0.244	0.203	0.236	0.526	0.538	0.645	0.726	0.781	0.763	0.586	0.698	0.563
NCI-H1944	0.349	0.329	0.427	0.393	0.429	0.427	0.414	0.355	0.371	0.626	0.656	0.84	0.619	0.819	0.31	0.381	0.381	0.331
NCI-H1975	0.606	0.643	0.629	0.619	0.909	0.8	0.824	0.63	0.659	0.313	0.286	0.325	0.271	0.23	–	0.332	0.411	0.402
NCI-H1993	0.681	0.763	0.766	0.762	1.13	1.04	0.943	0.736	0.769	0.478	0.619	0.716	0.532	0.485	0.742	0.78	0.821	0.789
NCI-H2009	0.428	0.343	0.422	0.36	0.702	0.592	0.661	0.603	0.544	1.07	0.998	1.07	0.977	1.1	0.711	0.618	0.659	0.637
NCI-H2023	0.357	0.268	0.309	0.322	0.509	0.424	0.332	0.348	0.372	0.22	0.23	0.292	0.285	0.212	0.22	0.27	0.308	0.18
NCI-H2085	0.649	0.557	0.687	0.58	–	0.86	0.784	0.784	0.782	–	1.02	0.929	0.959	0.714	0.387	0.471	0.452	0.39
NCI-H2087	0.242	0.376	0.408	0.291	0.698	0.562	0.558	0.339	0.36	0.682	0.754	0.709	0.727	0.612	0.769	0.604	0.795	0.66
NCI-H2126	0.754	0.651	0.642	0.631	0.897	0.979	0.843	0.769	0.757	0.644	0.698	0.708	0.705	0.611	0.433	0.478	0.441	0.412
NCI-H2170	0.449	0.366	0.473	0.362	0.579	0.513	0.686	0.574	0.613	0.262	0.29	0.244	0.348	0.352	0.282	0.335	0.368	0.274
NCI-H2228	0.454	0.586	0.391	0.542	0.735	0.56	0.518	0.598	0.272	0.328	0.32	0.317	0.338	0.256	0.297	0.313	0.538	0.404
